The record followed here is patent US5677282A (Proscript, Inc., priority 1995, dated 1997).

Several values for one entry are separate records, joined by “and”; a condition that tells them apart may be missing. Equal values may be shown once.

One assay addresses stromelysin (Homo sapiens, UniProt P08254). The assay is described as follows: Assay of stromelysin inhibition activity (fluorogenic coumarin peptide substrate). The format is biochemical. The following applies: trypsin-activated stromelysin 2 nM, H-150 buffer pH 7.4, room temperature; read-out: Ki(app). The method in brief: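 Human stromelysin trypsin-activated, then used at 2 nM in HEPES/NaCl/CaCl2 buffer pH 7.4 at room temperature with coumarin peptide substrate. Initial hydrolysis rate followed by fluorescence (ex 328/em 393 nm); inhibitor added stepwise to 30-70% inhibition, Ki derived assuming simple competitive inhibition with substrate far below Km.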

Assay [1] deals with bovine cartilage explants. Description: Bovine cartilage explant assay (35S-GAG release, rhIL-1α stimulated). The note with it: Bos taurus, rhIL-1α 5 ng/mL, 3-4 days culture, read-out: % inhibition (concentration [μM]) of cartilage degradation. It is filed as cell-based. The source says: A tissue culture assay was used to measure the ability of the compounds of the present invention to slow the degradation of the extracellular matrix by metalloproteinases. This assay measured the amount of ^35 S-glycosaminoglycan (^35 S-GAG) released from labeled bovine cartilage explants.
Knee joints from a 1 to 3 week old calf were obtained immediately after sacrifice from the Abattoir and then transported on ice. The intact joints were washed well with tap water and soaked in 50% (v/v) Povidine iodine solution, obtained from Burre National, Inc., Baltimore, Md. All subsequent steps were performed in a laminar flow tissue culture hood using standard sterile technique. The joint was immobilized in a shank holder and the joint capsule was cut open to expose the articular cartilage. Cartilage explant plugs, approximately 15 mg wet weight, were removed from the flat articulating surfaces in the lower-most region of the knee joint using a sterile steel cork-borer and collected in a 250 mL roller bottle containing about 100 mL fresh Delbecco's minimum essential medium (DMEM), obtained from Gibco BRC, Life Technologies, Gaithersburg, Md., containing 4.5 g/l (D)-glucose and (L)-glutamine, without sodium pyruvate. The fresh media also contained enough Hepes buffer and sodium bicarbonate such that the pH was about 7.4. The media was then further supplemented just before use with 100 units Penicillin, 100 μg Streptomycin, and 50 μg (L)-ascorbic acid per mL of medium.
Once collected, the explant plugs were washed four times with 50 mL fresh DMEM. The plugs were then placed in the incubator for a minimum of 1 hour to equilibrate, before proceeding to make disks from the articulating surface of each plug. A 1 mm thick disk was sliced from individual plugs from the end that was the articulating surface of the joint. The plug was held steady in the sterile template (4 mm diameter×1.5 mm deep) using sterile forceps. A scalpel blade was used to carefully slice off the disk. Only the superficial articulating surface responded well in culture.
Individual disks obtained were transferred to a tissue culture flask containing about 100 mL fresh media. The flask containing the disks was placed in an incubator at 37° C. (with 5% CO2, 95% air) and allowed to equilibrate overnight and at least one additional day before labeling. When ready to label, the old media was replaced with 50 mL fresh media containing about 500 μCi ^35 S-Sodium Sulfate. The plugs were labeled in bulk for about 48 hours. The next morning, the "hot" media was removed and replaced with fresh "cold" media. The disks were again allowed to equilibrate overnight before being used for actual experiments.
The media in which the disks were stored was changed immediately prior to performing the assay. The disks were then returned to the incubator until the test media and the two control media had been prepared. The test media consisted of the desired concentration of a compound being tested for its ability to inhibit extracellular matrix degradation and concomitant recombinant human Interleukin rhIL-1α (5 ng/mL) in fresh DMEM solution. The control media were identical to the test media, except that the first control media lacked rhIL-1α and the second control media lacked the test compound. 250 μL of each of the test and control media were transferred to separate 96-well TC plates. Flamed forceps were used to transfer a disk from the incubator to each 96-well TC plates that had been filled with either the test media or one of the two control media.
The TC plates were then placed in the incubator and cultured for 3-4 days (initial incubation with rhIL-1α alpha takes at least 3 days to stimulate endogenous metalloproteinases). A 50 μL aliquot of media from each TC plate was saved and counted. The rest of the media was removed with a suction device.
The cartilage disks from each TC plate were also saved for counting. […]

Sequence of stromelysin (P08254 100-477): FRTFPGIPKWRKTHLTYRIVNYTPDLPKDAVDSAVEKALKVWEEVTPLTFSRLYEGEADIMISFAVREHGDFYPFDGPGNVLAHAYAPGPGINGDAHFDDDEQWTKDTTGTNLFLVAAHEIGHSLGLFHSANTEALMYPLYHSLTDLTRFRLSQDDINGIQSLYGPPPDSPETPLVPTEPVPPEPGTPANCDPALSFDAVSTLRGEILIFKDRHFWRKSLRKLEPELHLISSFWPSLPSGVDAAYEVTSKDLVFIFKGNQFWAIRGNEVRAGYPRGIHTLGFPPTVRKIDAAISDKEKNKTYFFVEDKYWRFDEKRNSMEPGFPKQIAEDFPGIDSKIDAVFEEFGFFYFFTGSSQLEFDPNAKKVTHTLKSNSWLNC

`CC(C)C[C@H](NC(=O)[C@H](Cc1ccccc1)NC(=O)OCc1ccccc1)C(=O)Nc1n[nH]c(=S)s1` [5-(N-benzyloxycarbonyl-phenylalanyl-leucylamino)-1,3,4-thiadiazole-2-thione]: the Ki at stromelysin came to 169 nM. Further, in assay [1] (50 μM compound), the inhibition at 50 µM was determined as 33%.
As for `O=C(N[C@@H](Cc1ccc(OCc2ccccc2)cc1)C(=O)N[C@H](C(=O)Nc1n[nH]c(=S)s1)c1ccccc1)OCc1ccccc1`, the Ki at stromelysin was 39 nM and 64 nM. Also, the inhibition at 25 µM in assay [1] (25 μM compound) amounted to 20%.
As for `CC(C)[C@H](NC(=O)[C@H](Cc1ccccc1)NC(=O)OCc1ccccc1)C(=O)Nc1n[nH]c(=S)s1` [5-(N-benzyloxycarbonyl-phenylalanyl-valylamino)-1,3,4-thiadiazole-2-thione], on stromelysin, the Ki was determined as 279 nM. Besides, the inhibition at 10 µM in assay [1] (10 μM compound) was 40%.
